Non-standard residues stand in square brackets, D forms with d. Residues, ends and D or L forms follow the SMILES beside them.
Columns and labels:
Ami1Mab [1] = molecular target: T1, Ami1Mab (Mycobacteroides abscessus, UniProt B1MFL7); experiment: X-ray co-crystal structure, […] Å; assay type: binding; settings: co-crystallized with 5 mM dipeptide; active site near Zn2+
T1 construct: gene MAB_0318c; first 40 residues (signal peptide) removed; pET151 N-terminal tag cut by TEV; E. coli BL21(DE3) pRARE2; zinc enzyme
T1 sequence (B1MFL7 entry or part of it): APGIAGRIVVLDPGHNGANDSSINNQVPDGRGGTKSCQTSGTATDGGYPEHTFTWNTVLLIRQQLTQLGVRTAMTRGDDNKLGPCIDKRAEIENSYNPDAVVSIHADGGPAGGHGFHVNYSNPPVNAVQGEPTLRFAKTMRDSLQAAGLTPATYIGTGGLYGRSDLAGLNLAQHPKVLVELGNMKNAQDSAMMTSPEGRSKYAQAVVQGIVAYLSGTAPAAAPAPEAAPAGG

Ami1Mab [2] = molecular target: T1, Ami1Mab; experiment: TLC-based muramyl-dipeptide hydrolysis assay; assay type: biochemical; settings: substrate MDP; PBS; 37 °C
Ami1Mab [3] = molecular target: T1, Ami1Mab; experiment: TLC-based muramyl-dipeptide hydrolysis assay; assay type: biochemical; settings: substrate MDP; PBS; 37 °C; compound numbering as in Results
Ami1Mab [4] = molecular target: T1, Ami1Mab; experiment: TLC hydrolysis assay, ninhydrin; assay type: biochemical; settings: PBS, 37 °C, 30 min; Zn2+-dependent
Ami1Mtb = molecular target: T2, Ami1Mtb (Mycobacterium tuberculosis, UniProt I6Y4D2); assay type: biochemical
T2 construct: gene Rv3717
T2 sequence (I6Y4D2 whole entry, looked up): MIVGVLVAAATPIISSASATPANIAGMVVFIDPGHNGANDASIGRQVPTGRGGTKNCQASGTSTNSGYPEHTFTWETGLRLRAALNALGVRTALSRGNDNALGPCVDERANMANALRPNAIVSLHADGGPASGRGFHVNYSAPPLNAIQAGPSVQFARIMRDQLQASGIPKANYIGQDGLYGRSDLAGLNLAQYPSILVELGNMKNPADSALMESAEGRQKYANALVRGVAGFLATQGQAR

Ami1Mab [5] = molecular target: T1, Ami1Mab; experiment: TLC-based muramyl-dipeptide hydrolysis assay; assay type: biochemical; settings: substrate MDP; PBS; 37 °C; compound numbering as in Results; remark: listed apart in the source

Compound: C[C@H](N)C(=O)N[C@H](CCC(=O)O)C(N)=O [L-Ala-D-IsoGln] (H-Ala-[dE]-NH2)
- X-ray co-crystal structure, 1.7 Å (Ami1Mab [1]): The co-crystal structure of Ami1Mab bound to L-Ala-D-IsoGln was also solved

Compound: O=C(O)c1coc2ccnc(Cl)c12 [compound 1, 4-chlorofuro [3,2-c]pyridine-3-carboxylic acid]
- inhibitory effect, starting at (Ami1Mab [2]): 150 to 200 µM

Compound: O=C(O)c1ccnc(Cl)c1C(=O)O [compound 3, 2-chloropyridine-3,4-dicarboxylic acid]
- inhibitory effect, starting between (Ami1Mab [3]): 250 to 500 µM

Compound: CC(=O)N[C@H]1C(O)O[C@H](CO)[C@@H](O)[C@@H]1O[C@H](C)C(=O)N[C@@H](C)C(=O)N[C@H](CCC(=O)O)C(N)=O (stereo partly drawn) [muramyl-dipeptide]
- TLC hydrolysis assay, ninhydrin (Ami1Mab [4]): MDP was rapidly hydrolyzed by Ami1Mab
- TLC hydrolysis assay, ninhydrin (Ami1Mtb): Activity of both Ami1Mab and Ami1Mtb is inhibited after incubation with EDTA

Compound: Nc1ccccc1-c1nn[nH]n1 [compound 2, 2-(1H-1,2,3,4-tetrazol-5-yl)aniline]
- inhibitory activity starting at (Ami1Mab [5]): 800 µM

Reference: article PMC7694207, “Functional Characterization of the N-Acetylmuramyl-L-Alanine Amidase, Ami1, from Mycobacterium abscessus” (Cells, 2020)
